Key:
[1] = test system: patient with a severe form of OCD; test: Case study: treatment of a patient with a severe form of OCD; type: in vivo, human
Protocol: The GnRH-analogue triptorelin is available in a pharmaceutical preparation (Decapeptyl® Depot). In the use of this preparation, an injection is administered containing triptorelin embonate in a dose corresponding to 3.75 mg triptorelin. Injections with this dose are given intramuscularly. They should be repeated every fourth week from the first injection.
A detailed case study of the treatment of a patient with a severe form of OCD is disclosed in the following, as supporting evidence of the effect of the method.
A then person was referred to a psychiatric specialist clinic from another qualified psychiatrist for evaluation and treatment of a severe condition of OCD.
The situation when the patient came to the clinic was that they had sickness pension since more than ten years. They lived alone in a small apartment which they hardly ever left. Obsessions and compulsive rituals occupied most of their time. They repeated against their will meaningless strings of words silently during several hours every day. They felt they had to read the newspaper according to certain ritual patterns; if they did anything wrong, they had to start again from the beginning. Sometimes, it took them the whole day to read the newspaper. […] Among other things, they placed their books so that the covers were strictly oriented along north-south lines. Their contacts with other persons were highly restraint and mainly limited to some relatives.
The clinical diagnosis was that they suffered from a very serious form of OCD. They were also found to be intelligent without any signs of any other mental illness or personality disorder. Thus, it was a clearly defined case of OCD.
During long periods of time the patient had been treated with the drugs which presently are considered to have the best effect against OCD. In the treatment of the patient they had also been given supportive psychotherapy.
In order to overcome this, treatment with the long-acting GnRH-analogue triptorelin (Decapeptyl® Depot) was given every fourth week as deep intramuscular depot injections with a dose corresponding to 3.75 mg triptorelin in each injection.

[2] = test system: symptoms of androgenic hyperactivity; test: Case study: treatment against the patient's symptoms of androgenic hyperactivity; type: in vivo, human; details: one patient (male pattern baldness, sebaceous skin, acne, sexual drive)
Protocol: An endocrinological investigation was performed, based upon their symptoms of androgenic hyperactivity.

[3] = one patient, 3.75 mg i.m. depot every fourth week, after two plus another two months

Row | SMILES | OCD-symptoms, initial phase of treatment ([1]; one patient, 3.75 mg deep intramuscular depot injection every fourth week, initially) | patient's condition after two months treatment ([1]; one patient, 3.75 mg i.m. depot every fourth week, after two months) | obsessive thoughts after another two months [1, 3] | patient's condition after another two months [1, 3] | clinical outcome of very severe OCD ([1]; one patient, after three months of treatment) | effect on OCD ([1]; one patient, given as anti-androgenic treatment) | improvement of OCD on previous treatment ([1]; same patient, treated before triptorelin) | effect on symptoms of androgenic hyperactivity [2]
1 | CC(C)C[C@H](NC(=O)[C@@H](Cc1c[nH]c2ccccc12)NC(=O)[C@H](Cc1ccc(O)cc1)NC(=O)[C@H](CO)NC(=O)[C@H](Cc1c[nH]c2ccccc12)NC(=O)[C@H](Cc1c[nH]cn1)NC(=O)[C@@H]1CCC(=O)N1)C(=O)N[C@@H](CCCNC(=N)N)C(=O)N1CCC[C@H]1C(=O)NCC(N)=O [triptorelin] | accentuation of the patients OCD-symptoms | began to feel better | all obsessive thoughts had disappeared | dramatically better | substantially recovered | – | – | –
2 | CC(=O)O[C@]1(C(C)=O)CC[C@H]2[C@@H]3C=C(Cl)C4=CC(=O)[C@@H]5C[C@@H]5[C@]4(C)[C@H]3CC[C@@]21C [cyproterone acetate] | – | – | – | – | – | without any obvious effect | without any major improvement | without any significant effects

Reference: US20030216293A1, “Use of composition comprising at least one substance within the group GnRH-analogues for treatment of obsessive -compulsive disorder (OCD)” (priority 1998, published 2003)
